Test results from patent US20160361329A1, “COMPOUNDS FOR TREATMENT OF COMPLEMENT MEDIATED DISORDERS” (Achillion Pharmaceuticals, Inc., priority 2014, published 2016).
pIC50: −log10 of the molar value.

Biological target: T1, Human factor D (Homo sapiens, UniProt P00746)
T1 construct: purified from human serum; purchased Complement Technology, Inc; host or cells: human serum
Experiment: Human Factor D Assay
Format: biochemical
Conditions: Human factor D 80 nM, substrate Z-L-Lys-SBzl and DTNB, pH 7.5
Procedure: Other standard factor D inhibition assays are also available.
Human factor D (purified from human serum, Complement Technology, Inc.) at 80 nM final concentration is incubated with test compound at various concentrations for 5 minutes at room temperature in 50 mM Tris, 1M NaCl, pH 7.5. A synthetic substrate Z-L-Lys-SBzl and DTNB (Ellman's reagent) are added to final concentrations of 100 μM each. The increase in color is recorded at OD405 nm in a microplate in kinetic mode over 30 minutes with 30 second time points in a spectrofluorimeter. IC50 values are calculated by non-linear regression from the percentage of inhibition of complement factor D activity as a function of test compound concentration.

T1 sequence (P00746 26-253): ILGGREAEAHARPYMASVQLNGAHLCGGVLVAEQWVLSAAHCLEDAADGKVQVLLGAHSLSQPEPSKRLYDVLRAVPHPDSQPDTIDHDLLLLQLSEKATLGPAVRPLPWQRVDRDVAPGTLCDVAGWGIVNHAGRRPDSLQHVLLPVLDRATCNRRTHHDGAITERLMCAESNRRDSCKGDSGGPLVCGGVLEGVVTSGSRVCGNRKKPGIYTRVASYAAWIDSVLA

pIC50 | Structure (SMILES)
5.00 to 6.00 | NC(=O)n1cc(NC(=O)N2c3ccccc3C[C@H]2C(=O)NCc2cccc(Cl)c2F)c2ccccc21 [Compound 2, (S)-N1-(1-carbamoyl-1H-indol-3-yl)-N2-(3-chloro-2-fluorobenzyl)indoline-1,2-dicarboxamide]
5.00 to 6.00 | NC(=O)n1cc(NC(=O)N2C[C@H](F)C[C@H]2c2ncc(-c3cccc(Cl)c3)[nH]2)c2ccccc21 [Compound 10, 3-((2S,4R)-2-(5-(3-chlorophenyl)-1H-imidazol-2-yl)-4-fluoropyrrolidine-1-carboxamido)-1H-indole-1-carboxamide]
5.00 to 6.00 | NC(=O)n1cc(NC(=O)N2C[C@H](F)C[C@H]2c2ncc(-c3cccc(Br)n3)[nH]2)c2ccccc21 [Compound 12, 3-((2S,4R)-2-(5-(6-bromopyridin-2-yl)-1H-imidazol-2-yl)-4-fluoropyrrolidine-1-carboxamido)-1H-indole-1-carboxamide]
5.00 to 6.00 | NC(=O)n1cc(NC(=O)N2C[C@H](F)C[C@H]2c2nc3cc(Cl)ccc3[nH]2)c2ccccc21 [Compound 14, 3-((2S,4R)-2-(5-chloro-1H-benzo[d]imidazol-2-yl)-4-fluoropyrrolidine-1-carboxamido)-1H-indole-1-carboxamide]
5.00 to 6.00 | NC(=O)n1cc(NC(=O)[C@@H]2CCC[C@H]2C(=O)NCc2cccc(Cl)c2F)c2ccccc21 [Compound 23, (1R,2R)-N1-(1-carbamoyl-1H-indol-3-yl)-N2-(3-chloro-2-fluorobenzyl)cyclopentane-1,2-dicarboxamide]
5.00 to 6.00 | CC(=NC#N)c1cn(CC(=O)N2C[C@H](F)C[C@H]2C(=O)NCc2cccc(Cl)c2F)c2ccccc12 [Compound 32, (2S,4R)-N-(3-chloro-2-fluorobenzyl)-1-(2-(3-(1-(cyanoimino)ethyl)-1H-indol-1-yl)acetyl)-4-fluoropyrrolidine-2-carboxamide]
5.00 to 6.00 | O=C(NCc1cccc(Cl)c1F)[C@@H]1C[C@@H](F)CN1C(=O)CC1=Nc2ccccc2S(=O)(=O)N1 [Compound 49, (2S,4R)-N-(3-chloro-2-fluorobenzyl)-1-(2-(1,1-dioxido-2H-benzo[e][1,2,4]thiadiazin-3-yl)acetyl)-4-fluoropyrrolidine-2-carboxamide]
5.00 to 6.00 | CC(=O)c1ccc(CC(=O)N2C[C@H](F)C[C@H]2C(=O)NCc2cccc(Cl)c2F)c2ccccc12 [Compound 58, (2S,4R)-1-(2-(4-acetylnaphthalen-1-yl)acetyl)-N-(3-chloro-2-fluorobenzyl)-4-fluoropyrrolidine-2-carboxamide]
5.00 to 6.00 | CS(=O)(=O)N1CCc2c(n(CC(=O)N3C[C@H](F)C[C@H]3C(=O)NCc3cccc(Cl)c3F)c3ccccc23)C1 [Compound 69, (2S,4R)-N-(3-chloro-2-fluorobenzyl)-4-fluoro-1-(2-(2-(methylsulfonyl)-3,4-dihydro-1H-pyrido[3,4-b]indol-9(2H)-yl)acetyl)pyrrolidine-2-carboxamide]
5.00 to 6.00 | NC(c1cn(CC(=O)N2C[C@H](F)C[C@H]2C(=O)NCc2cccc(Cl)c2F)c2ccccc12)C(F)(F)F (stereo partly drawn) [Compound 78, (2S,4R)-1-(2-(3-(1-amino-2,2,2-trifluoroethyl)-1H-indol-1-yl)acetyl)-N-(3-chloro-2-fluorobenzyl)-4-fluoropyrrolidine-2-carboxamide]
> 6.00 | [2H]C([2H])(NC(=O)[C@@H]1C[C@H]2C[C@H]2N1C(=O)Cn1nc(C(N)=O)c2ccncc21)c1cccc(Cl)c1F [Compound 127, (1R,3S,5R)-2-(2-(3-carbamoyl-1H-pyrazolo[3,4-c]pyridin-1-yl)acetyl)-2-azabicyclo[3.1.0]hexane-3-carboxammide, N-(3-chloro-2-fluorophenylmethyl-d2)]
> 6.00 | [2H]C([2H])(NC(=O)[C@@H]1C[C@@H](F)CN1C(=O)Cn1nc(C(N)=O)c2ccncc21)c1cccc(Cl)c1F [Compound 128, (2S,4R)-1-(2-(3-carbamoyl-1H-pyrazolo[3,4-c]pyridin-1-yl)acetyl)-4-fluoropyrrolidine-2-carboxamide, N-(3-chloro-2-fluorophenylmethyl-d2)]

Structure (SMILES) | pIC50
CC(=O)c1cn(CC(=O)N2C[C@H](F)C[C@H]2c2ncc(-c3cccc(Br)n3)[nH]2)c2ccccc12 [Compound 13, 2-(3-acetyl-1H-indol-1-yl)-1-((2S,4R)-2-(5-(6-bromopyridin-2-yl)-1H-imidazol-2-yl)-4-fluoropyrrolidin-1-yl)ethanone] | 5.00 to 6.00
CC(=O)c1cn(CC(=O)N2C[C@H](F)C[C@H]2c2ncc(-c3cccc(Br)n3)[nH]2)c2cc(O)ccc12 [Compound 40, 2-(3-acetyl-6-hydroxy-1H-indol-1-yl)-1-((2S,4R)-2-(5-(6-bromopyridin-2-yl)-1H-imidazol-2-yl)-4-fluoropyrrolidin-1-yl)ethanone] | 5.00 to 6.00
CC(=O)c1cn(CC(=O)N2CC3(C[C@H]2C(=O)Nc2cccc(OC(F)(F)F)c2F)OCCO3)c2cc(O)ccc12 [Compound 41, (S)-7-(2-(3-acetyl-6-hydroxy-1H-indol-1-yl)acetyl)-N-(2-fluoro-3-(trifluoromethoxy)phenyl)-1,4-dioxa-7-azaspiro[4.4]nonane-8-carboxamide] | 5.00 to 6.00
CC(=O)c1cn(CC(=O)N2C[C@H](F)C[C@H]2C(=O)NC2CCc3ccccc32)c2ccccc12 (some centres unmarked) [Compound 42] | 5.00 to 6.00
CC(=O)c1cn(CC(=O)N2C[C@H](F)C[C@H]2C(=O)NC2CCc3c(Cl)cccc32)c2ccccc12 (stereo partly drawn) [Compound 44, (2S,4R)-1-(2-(3-acetyl-1H-indol-1-yl)acetyl)-N-(4-chloro-2,3-dihydro-1H-inden-1-yl)-4-fluoropyrrolidine-2-carboxamide] | 5.00 to 6.00
CCOP(=O)(OCC)c1nn(CC(=O)N2C[C@H](F)C[C@H]2C(=O)NCc2cccc(Cl)c2F)c2cnccc12 [Compound 53, diethyl 1-(2-((2S,4R)-2-(3-chloro-2-fluorobenzylcarbamoyl)-4-fluoropyrrolidin-1-yl)-2-oxoethyl)-1H-pyrazolo[3,4-c]pyridin-3-ylphosphonate] | 5.00 to 6.00
CCOP(=O)(OCC)c1cc(Cl)cc(NC(=O)[C@@H]2C[C@@H](F)CN2C(=O)Cn2cc(C(C)=O)c3ccccc32)c1 [Compound 59, diethyl 3-((2S,4R)-1-(2-(3-acetyl-1H-indol-1-yl)acetyl)-4-fluoropyrrolidine-2-carboxamido)-5-chlorophenylphosphonate] | 5.00 to 6.00
CCOP(=O)(O)c1nn(CC(=O)N2C[C@H](F)C[C@H]2C(=O)NCc2cccc(Cl)c2F)c2cnccc12 [Compound 60, ethyl hydrogen 1-(2-((2S,4R)-2-(3-chloro-2-fluorobenzylcarbamoyl)-4-fluoropyrrolidin-1-yl)-2-oxoethyl)-1H-pyrazolo[3,4-c]pyridin-3-ylphosphonate] | 5.00 to 6.00
C=C[C@@H]1C[C@]1(NC(=O)[C@@H]1C[C@@H](F)CN1C(=O)Cn1cc(C(C)=O)c2ccc(O)cc21)C(=O)NS(=O)(=O)C1CC1 [Compound 64, (2S,4R)-1-(2-(3-acetyl-6-hydroxy-1H-indol-1-yl)acetyl)-N-((1R,2S)-1-(cyclopropylsulfonyl-carbamoyl)-2-vinylcyclopropyl)-4-fluoropyrrolidine-2-carboxamide] | 5.00 to 6.00
CC(=O)c1cn(CC(=O)N2[C@@H]3CCCC[C@@H]3C[C@H]2C(=O)NCc2cccc(Cl)c2F)c2cc(O)ccc12 [Compound 66, (2S,3aR,7aR)-1-(2-(3-acetyl-6-hydroxy-1H-indol-1-yl)acetyl)-N-(3-chloro-2-fluorobenzyl)octahydro-1H-indole-2-carboxamide] | 5.00 to 6.00
COc1cccc2c1c(C(C)=O)cn2CC(=O)N1C[C@H](F)C[C@H]1C(=O)Nc1cccc(-c2ccccc2Cl)c1F [Compound 96, (2S,4R)-1-(2-(3-acetyl-4-methoxy-1H-indol-1-yl)acetyl)-N-(2′-chloro-2-fluorobiphenyl-3-yl)-4-fluoropyrrolidine-2-carboxamide] | 5.00 to 6.00
